target: T1, human Edg-1 (S1P1) (Homo sapiens, UniProt P21453); experiment: S1P1 binding assay: inhibition of [33P]-S1P binding to membrane fraction of HEK-293 cells transferred with the human Edg-1 (S1P1) gene; settings: test compound at 10 μM; inhibition of [33P]-S1P binding to the membrane fraction of HEK-293 cells expressing human Edg-1 (S1P1)
T1 construct: expressed in transfected cells; host or cells: HEK-293
Experimental: The membrane fraction was obtained by treating the cells with a solubilizing buffer (1 mM Tris/HCl, pH 7.2) for 10 minutes on ice, centrifuging at 1000×g for 5 minutes to remove insoluble fractions, and then centrifuging at 40000×g for 30 minutes at 4° C. The resulting membrane fraction was dissolved in a binding buffer (20 mM Tris-HCl, pH 7.4, 100 mM NaCl, 15 mM NaF, 2 mM deoxypyridoxine, 4 mg/mL fatty acid-free BSA), and then [^33P]-S1P (manufactured by ARC, final concentration 0.1 nM) and a DMSO solution (final concentration of the compound 10^−5M, final concentration of DMSO 0.1%) of the test compound were added. Thereafter, the mixture was stirred and then treated for one hour at 30° C. Using a harvester, the membrane fraction was harvested onto unifilter-96 GF/C filter (manufactured by Perkin Elmer), washing was carried out four times with the binding buffer, and the filter was dried. Twenty five μL Microscint 0 (manufactured by Perkin Elmer) was added, and radioactivity was measured using Top Count NXT (manufactured by Packard) to calculate the amount (A) of [^33P]-S1P bound to the membrane fraction at the time when the compound was added.
The same procedure was carried out in the absence of the test compound, and the amount (B) of [^33P]-S1P bound was calculated. Further, the same procedure was carried out in the absence of the test compound by use of HEK-293 cells to which no Edg-1 (S1P1) gene was introduced, and the background amount (C) of [^33P]-S1P bound was calculated.
Inhibition rate (%)=[1−(A−C)/(B−C)]×100
Further, concentrations (IC50) at the time when binding in the absence of the test compound was inhibited by 50% were calculated. The membrane system binding assay was carried out in the presence of test compounds with various concentrations, and the Edg-1 (S1P1) binding inhibition rates were calculated using the equation above. Then, IC50 values were calculated using Origin (Lightstone Corp.), a software for data analysis.

T1 sequence (P21453 whole entry): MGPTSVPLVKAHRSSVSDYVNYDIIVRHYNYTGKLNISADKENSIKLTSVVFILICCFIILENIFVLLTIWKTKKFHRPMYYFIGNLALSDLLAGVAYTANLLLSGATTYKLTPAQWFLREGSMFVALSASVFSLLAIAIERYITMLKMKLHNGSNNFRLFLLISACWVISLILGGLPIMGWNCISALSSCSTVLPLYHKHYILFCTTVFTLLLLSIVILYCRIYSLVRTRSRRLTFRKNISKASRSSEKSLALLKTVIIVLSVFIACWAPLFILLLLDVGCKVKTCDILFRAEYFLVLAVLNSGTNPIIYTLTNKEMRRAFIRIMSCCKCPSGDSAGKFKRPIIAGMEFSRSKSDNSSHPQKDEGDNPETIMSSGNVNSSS

Compound	inhibition at 10 µM [%]
CCn1c(Oc2ccc(F)cc2)nnc1[C@@H](C)NS(=O)(=O)c1ccc(F)c2ccccc12 [Compound 307]	94.4
CCn1c(Oc2ccc3cc[nH]c3c2)nnc1[C@@H](C)NS(=O)(=O)c1ccc(C(C)=O)cc1 [Compound 327]	92.3
CCn1c(Oc2ccc3cc[nH]c3c2)nnc1[C@@H](C)NS(=O)(=O)c1ccc(Br)cc1 [Compound 329]	101
CCn1c(Oc2ccc3cc[nH]c3c2)nnc1[C@@H](C)NS(=O)(=O)c1ccc(C(C)(C)C)cc1 [Compound 330]	81.6
CCn1c(Oc2ccc3cc[nH]c3c2)nnc1[C@@H](C)NS(=O)(=O)c1cccc(Br)c1 [Compound 333]	102
CCn1c(Oc2ccc3cc[nH]c3c2)nnc1[C@@H](C)NS(=O)(=O)c1ccc(OC)c(OC)c1 [Compound 343]	86.5
CCc1ccc(S(=O)(=O)N[C@H](C)c2nnc(Oc3ccc4cc[nH]c4c3)n2CC)cc1 [Compound 345]	90.4
CCn1c(Oc2ccc3cc[nH]c3c2)nnc1[C@@H](C)NS(=O)(=O)c1ccc(F)cc1 [Compound 346]	89.2
CCn1c(Oc2ccc3cc[nH]c3c2)nnc1[C@@H](C)NS(=O)(=O)c1ccc(OC)cc1 [Compound 348]	109
CCn1c(Oc2ccc3cc[nH]c3c2)nnc1[C@@H](C)NS(=O)(=O)c1ccc(S(C)(=O)=O)cc1 [Compound 350]	75
CCn1c(Oc2ccc3cc[nH]c3c2)nnc1[C@@H](C)NS(=O)(=O)c1cccc(C)c1 [Compound 364]	87.5
CCn1c(Oc2ccc3cc[nH]c3c2)nnc1[C@@H](C)NS(=O)(=O)c1cc(C)ccc1C [Compound 367]	94.3
CCn1c(Oc2ccc3cc[nH]c3c2)nnc1[C@@H](C)NS(=O)(=O)c1ccc(-c2csnn2)s1 [Compound 368]	60.5
CCn1c(Oc2ccc3cc[nH]c3c2)nnc1[C@@H](C)NS(=O)(=O)c1ccc(C(=O)OC)n1C [Compound 372]	106
CCCc1ccc(S(=O)(=O)N[C@H](C)c2nnc(Oc3ccc4cc[nH]c4c3)n2CC)cc1 [Compound 377]	73.9
CCn1c(Oc2ccc3cc[nH]c3c2)nnc1[C@@H](C)NS(=O)(=O)c1c(C)c(C)cc(C)c1C [Compound 378]	71.6
CCn1c(Oc2ccc3cc[nH]c3c2)nnc1[C@@H](C)NS(=O)(=O)c1cccc(Cl)c1Cl [Compound 379]	89.2
CCn1c(Oc2ccc3cc[nH]c3c2)nnc1[C@@H](C)NS(=O)(=O)c1cc(C(F)(F)F)cc(C(F)(F)F)c1 [Compound 382]	66.9
CCn1c(Oc2ccc3cc[nH]c3c2)nnc1[C@@H](C)NS(=O)(=O)c1cc(Cl)cc(Cl)c1 [Compound 383]	83.6
CCn1c(Oc2ccc3cc[nH]c3c2)nnc1[C@@H](C)NS(=O)(=O)c1cccc(Cl)c1C [Compound 384]	88.1
CCn1c(Oc2ccc3cc[nH]c3c2)nnc1[C@@H](C)NS(=O)(=O)c1ccc(F)c(Cl)c1 [Compound 385]	98
CCn1c(Oc2ccc3cc[nH]c3c2)nnc1[C@@H](C)NS(=O)(=O)c1cc(F)c(Br)cc1F [Compound 387]	63.5
CCn1c(Oc2ccc3cc[nH]c3c2)nnc1[C@@H](C)NS(=O)(=O)c1c(C)cc(OC)c(C)c1C [Compound 388]	65.8

Other lines, results leading:

inhibition at 10 µM [%]	Compound
60.2	CCn1c(Oc2ccc(F)cc2)nnc1[C@@H](C)NS(=O)(=O)c1cccc(C(C)=O)c1 [Compound 306]
76.5	CCc1ccc(OC)c(S(=O)(=O)N[C@H](C)c2nnc(Oc3ccc(F)cc3)n2CC)c1 [Compound 311]
52.2	CCn1c(Oc2ccc(F)cc2)nnc1[C@@H](C)NS(=O)(=O)c1ccc(Cl)c(S(N)(=O)=O)c1 [Compound 314]
78.9	CCn1c(Oc2ccc(F)cc2)nnc1[C@@H](C)NS(=O)(=O)c1ccc(Br)c(C(F)(F)F)c1 [Compound 318]
61.7	CCn1c(Oc2ccc(F)cc2)nnc1[C@@H](C)NS(=O)(=O)c1cc(Br)cc(C(F)(F)F)c1 [Compound 319]
77.9	CCn1c(Oc2ccc(F)cc2)nnc1[C@@H](C)NS(=O)(=O)c1cc2ccccc2s1 [Compound 323]
81.8	CCn1c(Cc2ccc(F)cc2)nnc1[C@@H](C)NS(=O)(=O)c1csc2ccccc12 [Compound 324]
85.2	CCn1c(Oc2ccc3cc[nH]c3c2)nnc1[C@@H](C)NS(=O)(=O)c1ccccc1 [Compound 328]
59.8	CCn1c(Oc2ccc3cc[nH]c3c2)nnc1[C@@H](C)NS(=O)(=O)c1ccccc1Br [Compound 331]
106	CCn1c(Oc2ccc3cc[nH]c3c2)nnc1[C@@H](C)NS(=O)(=O)c1ccc(Cl)cc1 [Compound 335]
56.8	CCn1c(Oc2ccc3cc[nH]c3c2)nnc1[C@@H](C)NS(=O)(=O)c1ccccc1C#N [Compound 336]
69.2	CCn1c(Oc2ccc3cc[nH]c3c2)nnc1[C@@H](C)NS(=O)(=O)c1cccc(C#N)c1 [Compound 338]
62.8	CCn1c(Oc2ccc3cc[nH]c3c2)nnc1[C@@H](C)NS(=O)(=O)c1sc2ccc(Cl)cc2c1C [Compound 339]
100	CCn1c(Oc2ccc3cc[nH]c3c2)nnc1[C@@H](C)NS(=O)(=O)c1cc(C)c(Cl)cc1C [Compound 340]
92.8	CCn1c(Oc2ccc3cc[nH]c3c2)nnc1[C@@H](C)NS(=O)(=O)c1cc(Cl)ccc1Cl [Compound 341]
53.6	CCn1c(Oc2ccc3cc[nH]c3c2)nnc1[C@@H](C)NS(=O)(=O)c1c(Cl)cccc1Cl [Compound 342]
50.1	CCn1c(Oc2ccc3cc[nH]c3c2)nnc1[C@@H](C)NS(=O)(=O)c1c(C)cc(C)cc1C [Compound 347]
88.5	CCn1c(Oc2ccc3cc[nH]c3c2)nnc1[C@@H](C)NS(=O)(=O)c1cccc2ccccc12 [Compound 352]
92.3	CCn1c(Oc2ccc3cc[nH]c3c2)nnc1[C@@H](C)NS(=O)(=O)CCc1cccc2ccccc12 [Compound 353]
98.8	CCn1c(Oc2ccc3cc[nH]c3c2)nnc1[C@@H](C)NS(=O)(=O)c1ccc(I)cc1 [Compound 355]
95.6	CCn1c(Oc2ccc3cc[nH]c3c2)nnc1[C@@H](C)NS(=O)(=O)/C=C/c1ccccc1 [Compound 356]
106	CCn1c(Oc2ccc3cc[nH]c3c2)nnc1[C@@H](C)NS(=O)(=O)c1cc(Cl)c(Cl)cc1Cl [Compound 357]
95.7	CCn1c(Oc2ccc3cc[nH]c3c2)nnc1[C@@H](C)NS(=O)(=O)c1ccc(C)cc1 [Compound 359]
96.9	CCn1c(Oc2ccc3cc[nH]c3c2)nnc1[C@@H](C)NS(=O)(=O)c1ccccc1C [Compound 361]
95.1	CCn1c(Oc2ccc3cc[nH]c3c2)nnc1[C@@H](C)NS(=O)(=O)c1ccc(OC(F)(F)F)cc1 [Compound 362]
96.2	C=Cc1ccc(S(=O)(=O)N[C@H](C)c2nnc(Oc3ccc4cc[nH]c4c3)n2CC)cc1 [Compound 363]
63.2	CCn1c(Oc2ccc3cc[nH]c3c2)nnc1[C@@H](C)NS(=O)(=O)c1ccc2c(c1)CN(C(=O)C(F)(F)F)CC2 [Compound 366]
84	CCn1c(Oc2ccc3cc[nH]c3c2)nnc1[C@@H](C)NS(=O)(=O)c1cccc(OC)c1 [Compound 386]
